Values quoted from earlier work in patent US20080292714A1, “BONE TARGETING OF DEGRADABLE DRUG FILLED NANOPARTICLES” (Semafore Pharmaceuticals Inc., priority 2003, published 2008).

Legend:
[1] = portion not accumulated in skeleton
[2] = tested on: C8 (mouse embryo fibroblasts transformed with Ela+ras) cells; settings: 10 micromolar
p53 = molecular target: T1, p53 (Mus musculus, UniProt P02340)
T1 construct: endogenous in cells; host or cells: living mice, C57BL and Balb/c strains
T1 sequence (P02340 whole entry): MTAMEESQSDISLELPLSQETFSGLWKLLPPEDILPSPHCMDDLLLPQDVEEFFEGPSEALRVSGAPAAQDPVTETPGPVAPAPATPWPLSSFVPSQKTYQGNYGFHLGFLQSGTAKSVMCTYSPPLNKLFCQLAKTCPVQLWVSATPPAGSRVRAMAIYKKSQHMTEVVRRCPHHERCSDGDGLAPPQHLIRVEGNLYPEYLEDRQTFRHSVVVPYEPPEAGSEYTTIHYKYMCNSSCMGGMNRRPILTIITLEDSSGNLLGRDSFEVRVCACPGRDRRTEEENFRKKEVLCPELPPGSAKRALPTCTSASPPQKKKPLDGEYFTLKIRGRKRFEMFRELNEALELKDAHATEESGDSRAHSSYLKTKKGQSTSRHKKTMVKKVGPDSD

Structure (SMILES)	time after administration at which excretion is almost complete [1]	inhibition of apoptosis induced by doxorubicin, etoposide, Taxol, cytosine arabinoside, UV light, gamma radiation [2]	tumors or pathological lesions in gamma-irradiated survivors (p53; 7 months post-irradiation)	weight loss versus controls (p53; irradiated treated mice)	protective effect in p53-null mice treated with radiation (p53; p53-null mice controls)	rescue from 60% killing doses of gamma radiation (p53; single i.p. injection 2.2 mg/kg, 8 Gy C57BL, 6 Gy Balb/c)
O=P([O-])(O)CN(CCN(CP(=O)([O-])O)CP(=O)(O)O)CP(=O)([O-])O.[153Sm+3] [^153Sm-EDTMP]	≤ 6 h					
Cc1ccc(C(=O)Cn2c3c(sc2=N)CCCC3)cc1 [pifithrin-α, 2-[2-imino-4,5,6,7-tetrahydro-1,3-benzothiazol-3(2H)-yl]-1-(4-methylphenyl)-1-ethanone]		inhibited apoptosis	no tumors or pathological lesions were found	less weight-loss than controls	no protective effect	completely rescued
